Results as given in patent US11753433B2, “Methods of synthesizing substituted purine compounds” (Epizyme, Inc., priority 2013, dated 2023).

How the values were obtained:
[1] = Solubility in Simulated Gastric Fluid (SGF) at 37° C.; type: physicochemical; details: for Resulting Solid: XRPD
Protocol: To study if Form A and Form B would perform differently in stomach, the solubilities of Form A and Form B were measured in Simulated Gastric Fluid (SGF, see below for SGF preparation) at 37° C. […] The remaining solids after each time point were subject to XRPD analysis. […] Weigh appropriate amount of hydrochloride (HCl) and sodium chloride (NaCl) into a 1-L flask followed by addition of 1-L deionized water. The mixture was stirred until all solids are dissolved. Check pH value with a pH-meter and adjust the pH to 1.8 with HCl (1N) or NaOH (1N).

Solid-state stability = type: physicochemical
Protocol: Chemical Stability: Accurately weighed ˜10 mg Form B was placed into four 10-ml volumetric flasks. The samples were stored at 5° C. closed dish, 25° C./57% RH open dish, 40° C./75% RH open dish, and 60° C. closed dish for 7 days. The sample stored at 5° C. was used as a control. Assay and total related substances for each sample were checked at the end of 7 days.
Physical Stability: Accurately weighed ˜15 mg of Form B was placed into 5-ml glass vials and the samples were stored at 5° C. closed dish, 25° C./57% RH open dish, 40° C./75% RH open dish, and 60° C. closed dish for 7 days. Samples were analyzed by XRPD and TGA (FIG. 24).

[2] = 5° C. Closed Dish, 7 Days (control)
[3] = 25° C./57% RH Open Dish, 7 Days
[4] = 40° C./75% RH Open Dish, 7 Days

- Final pH [1]: 5.3
- Resulting Solid ([1]; 15 min): Type B
- Resulting Solid ([1]; 30 min): Type B
- Resulting Solid ([1]; 60 min): Type B
- solubility at 15 min ([1]; Simulated Gastric Fluid (SGF), pH 1.8, simulated gastric fluid, thermodynamic from solid, 15 min, calculated using free base content): 5400 µg/mL
- solubility at 30 min ([1]; Simulated Gastric Fluid (SGF), pH 1.8, simulated gastric fluid, thermodynamic from solid, 30 min, calculated using free base content): 5400 µg/mL
- solubility at 60 min ([1]; Simulated Gastric Fluid (SGF), pH 1.8, simulated gastric fluid, thermodynamic from solid, 60 min, calculated using free base content): 5600 µg/mL
- Chemical Area % (100% − TRS %) (Solid-state stability; [2]): 99.1%
- Physical TGA (%) (Solid-state stability; [2]): 8.63%
- Physical XRPD (Solid-state stability; [2]): Form B
- Chemical % Claim (Cs/Ci × 100%) (Solid-state stability; 5° C. Closed Dish, 7 Days (used as standard)): 100.0^& %
- Chemical % Claim (Cs/Ci × 100%) (Solid-state stability; [3]): 100.7%
- Chemical Area % (100% − TRS %) (Solid-state stability; [3]): 99.0%
- Physical TGA (%) (Solid-state stability; [3]): 8.66%
- Physical XRPD (Solid-state stability; [3]): Form B
- Chemical % Claim (Cs/Ci × 100%) (Solid-state stability; [4]): 101.0%
- Chemical Area % (100% − TRS %) (Solid-state stability; [4]): 99.0%
- Physical TGA (%) (Solid-state stability; [4]): 8.64%
- Physical XRPD (Solid-state stability; [4]): Form B
- Chemical % Claim (Cs/Ci × 100%) (Solid-state stability; 60° C. Closed Dish, 7 Days): 100.7%
- Chemical Area % (100% − TRS %) (Solid-state stability; 60° C. Closed Dish, 7 Days): 99.1%
- Physical TGA (%) (Solid-state stability; 60° C. Closed Dish, 7 Days): 8.49%
- Physical XRPD (Solid-state stability; 60° C. Closed Dish, 7 Days): Form B
SMILES: CC(C)N(C[C@H]1O[C@@H](n2cnc3c(N)ncnc32)[C@H](O)[C@@H]1O)[C@H]1C[C@@H](CCc2nc3cc(C(C)(C)C)ccc3[nH]2)C1 [Form B, (2R,3R,4S,5R)-2-(6-amino-9H-purin-9-yl)-5-((((1r,3S)-3-(2-(5-(tert-butyl)-1H-benzo[d]imidazol-2-yl)ethyl)cyclobutyl)(isopropyl)amino)methyl)tetrahydrofuran-3,4-diol trihydrate]
